Assay results: patent publication US6914045B2, “Glycopeptide antibiotics” (Wyeth Holdings Corporation, priority 2001, dated 2005)
Values after ≈ are worked out from the molar mass of the structure shown.

Experiments:
Test in all cases: in vitro antibacterial evaluation, MIC by broth dilution
Type in all cases: cell-based
Conditions in all cases: broth dilution, 18 hours at 35° C.
Enterococcus sp. = system: Enterococcus sp.
Method in brief: (§1)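 Broth dilution per NCCLS standard M7-A2 in Muller-Hinton II […], with an inoculum of 5×10^5 CFU/mL and antibiotic spanning 64-0.06 μg/mL. The MIC is the lowest concentration that inhibits growth of the organism.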

Staphylococcus sp. = system: Staphylococcus sp.
Method in brief: as §1

Streptococcus sp. = system: Streptococcus sp.
Method in brief: as §1

Escherichia coli = system: Escherichia coli
Method in brief: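 Broth dilution in Muller-Hinton II medium per NCCLS standard M7-A2, with an inoculum of 5×10^5 CFU/mL and antibiotic tested over 64-0.06 μg/mL. MIC was taken as the lowest concentration inhibiting visible growth.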

MIC Enterococcus avium (GC 4558) (Enterococcus sp.; Enterococcus avium (GC 4558)): >128 µg/mL
MIC Enterococcus faecalis (ATCC 29212) (Enterococcus sp.; Enterococcus faecalis (ATCC 29212)): >128 µg/mL
MIC Enterococcus faecalis (GC 4552) (Enterococcus sp.; Enterococcus faecalis (GC 4552)): >128 µg/mL
MIC Enterococcus faecalis (GC 4553) (Enterococcus sp.; Enterococcus faecalis (GC 4553)): >128 µg/mL
MIC Enterococcus faecalis (GC 4554) (Enterococcus sp.; Enterococcus faecalis (GC 4554)): >128 µg/mL
MIC Enterococcus faecalis (GC 6189) (Enterococcus sp.; Enterococcus faecalis (GC 6189)): >128 µg/mL
MIC Enterococcus faecium (GC 2243) (Enterococcus sp.; Enterococcus faecium (GC 2243)): >128 µg/mL
MIC Enterococcus faecium (GC 4556) (Enterococcus sp.; Enterococcus faecium (GC 4556)): >128 µg/mL
MIC Enterococcus faecium (GC 4557) (Enterococcus sp.; Enterococcus faecium (GC 4557)): >128 µg/mL
MIC Enterococcus faecalis (ATCC 29212) (Enterococcus sp.; strain ATCC 29212): >128 µg/mL
MIC Enterococcus faecalis (GC 2242) (Enterococcus sp.; strain GC 2242): >128 µg/mL
MIC Enterococcus faecium (GC 2243) (Enterococcus sp.; strain GC 2243): >128 µg/mL
MIC Enterococcus faecalis (GC 2691) (Enterococcus sp.; strain GC 2691): >128 µg/mL
MIC Enterococcus faecalis (GC 3059) (Enterococcus sp.; strain GC 3059): >128 µg/mL
MIC Enterococcus faecalis (GC 4552) (Enterococcus sp.; strain GC 4552): >128 µg/mL
MIC Enterococcus faecalis (GC 4553) (Enterococcus sp.; strain GC 4553): >128 µg/mL
MIC Enterococcus faecalis (GC 4554) (Enterococcus sp.; strain GC 4554): >128 µg/mL
MIC Enterococcus faecium (GC 4556) (Enterococcus sp.; strain GC 4556): >128 µg/mL
MIC Enterococcus faecium (GC 4557) (Enterococcus sp.; strain GC 4557): >128 µg/mL
MIC Enterococcus avium (GC 4558) (Enterococcus sp.; strain GC 4558): >128 µg/mL
MIC Enterococcus faecalis (GC 6189) (Enterococcus sp.; strain GC 6189): >128 µg/mL
MIC Staphylococcus aureus (ATCC 29213) (Staphylococcus sp.; strain ATCC 29213): >128 µg/mL
MIC Staphylococcus aureus (GC 1131) (Staphylococcus sp.; strain GC 1131): >128 µg/mL
MIC Staphylococcus aureus (GC 3051) (Staphylococcus sp.; strain GC 3051): >128 µg/mL
MIC Staphylococcus aureus (GC 3053) (Staphylococcus sp.; strain GC 3053): >128 µg/mL
MIC Staphylococcus aureus (GC 4541) (Staphylococcus sp.; strain GC 4541): >128 µg/mL
MIC Staphylococcus aureus (GC 4542) (Staphylococcus sp.; strain GC 4542): >128 µg/mL
MIC Staphylococcus aureus-SMITH (GC 4543) (Staphylococcus sp.; strain GC 4543): >128 µg/mL
MIC Staphylococcus aureus (GC 4544) (Staphylococcus sp.; strain GC 4544): >128 µg/mL
MIC Staphylococcus aureus (GC 4545) (Staphylococcus sp.; strain GC 4545): >128 µg/mL
MIC Coagulase Negative Staphylococcus (GC 4547) (Staphylococcus sp.; strain GC 4547): >128 µg/mL
MIC Coagulase Negative Staphylococcus (GC 4548) (Staphylococcus sp.; strain GC 4548): >128 µg/mL
MIC Coagulase Negative Staphylococcus (GC 4549) (Staphylococcus sp.; strain GC 4549): >128 µg/mL
MIC Coagulase Negative Staphylococcus (GC 4551) (Staphylococcus sp.; strain GC 4551): >128 µg/mL
MIC Streptococcus pneumoniae (ATCC 6301) (Streptococcus sp.; strain ATCC 6301): 64 µg/mL (≈ 49 µM)
MIC Streptococcus pneumoniae (GC 1894) (Streptococcus sp.; strain GC 1894): 32 µg/mL (≈ 24.5 µM)
MIC Streptococcus pyogenes (GC 4563) (Streptococcus sp.; strain GC 4563): 64 µg/mL (≈ 49 µM)
MIC Streptococcus agalactiae (GC 4564) (Streptococcus sp.; strain GC 4564): 64 µg/mL (≈ 49 µM)
MIC Streptococcus pneumoniae (GC 4565) (Streptococcus sp.; strain GC 4565): 64 µg/mL (≈ 49 µM)
MIC Escherichia coli (ATCC 25922) (Escherichia coli; strain ATCC 25922): >128 µg/mL
MIC Escherichia coli (GC 4559) (Escherichia coli; strain GC 4559): >128 µg/mL
MIC Escherichia coli (GC 4560) (Escherichia coli; strain GC 4560): >128 µg/mL
Structure (SMILES): CC(C1CCCCC1)C1NC(=O)CNC(=O)C(CO)NC(=O)C(C(O)C2CNC(=N)N2C2OC(CO)C(O)C(O)C2O)NC(=O)C(C(O)C2CNC(=N)N2)NC(=O)C(CC2CCC(OC3OC(CO)C(OC4OC(CO)C(O)C(O)C4O)C(O)C3O)CC2)NC1=O (stereo not shown) [Example 53a, Cyclo[3-[4-[(4-O-hexopyranosylhexopyranosyl)oxy]cyclohexyl]alanyl-3-(2-iminoimidazolidin-4-yl)seryl-3-(3-hexopyranosyl-2-iminoimidazolidin-4-yl)serylserylglycyl-3-cyclohexyl-2-aminobutanoyl]]
MIC Staphylococcus haemolyticus (GC 4546) (Staphylococcus sp.; strain GC 4546): >128 µg/mL
